Test results reported in the CheMixHub viscosity set.

Test: xn = mol fraction of the nth substance listed

CCOC(=O)[C@@H](O)[C@H](O)C(=O)OCC + CCCO
viscosity [mPa·s], 101 kPa
Details | x1 = 0.1 | x1 = 0.2 | x1 = 0.2999 | x1 = 0.3999 | x1 = 0.5001 | x1 = 0.5999 | x1 = 0.7 | x1 = 0.7996 | x1 = 0.9
293.15 K | 3.256 | 5.15 | 8.204 | 13.19 | 21 | 32.75 | 52.88 | 84.67 | 135.1
298.15 K | 2.832 | 4.359 | 6.759 | 10.53 | 16.09 | 24.37 | 37.73 | 57.79 | 88.2
303.15 K | 2.467 | 3.7 | 5.586 | 8.415 | 12.64 | 18.48 | 27.67 | 40.91 | 60.18
308.15 K | 2.164 | 3.17 | 4.671 | 6.886 | 10.06 | 14.35 | 20.86 | 29.93 | 42.64
313.15 K | 1.913 | 2.731 | 3.92 | 5.661 | 8.093 | 11.3 | 16.05 | 22.45 | 31.15
318.15 K | 1.694 | 2.385 | 3.38 | 4.782 | 6.694 | 9.164 | 12.71 | 17.37 | 23.52
323.15 K | 1.52 | 2.108 | 2.94 | 4.092 | 5.623 | 7.561 | 10.28 | 13.77 | 18.27

CCOC(=O)c1ccccc1 + CC(=O)CC(C)C
viscosity [mPa·s], 101.33 kPa
Details | 293.15 K | 303.15 K
x2 = 0.0752 | 1.89 | 1.55
x2 = 0.1491 | 1.675 | 1.376
x2 = 0.2022 | 1.58 | 1.303
x2 = 0.3364 | 1.375 | 1.15
x2 = 0.4004 | 1.277 | 1.079
x2 = 0.5355 | 1.109 | 0.94
x2 = 0.6213 | 0.988 | 0.85
x2 = 0.7165 | 0.88 | 0.757
x2 = 0.7942 | 0.797 | 0.69
x2 = 0.8805 | 0.719 | 0.625
x2 = 0.9154 | 0.686 | 0.599
x2 = 0.9549 | 0.648 | 0.569

C=C(C)C(=O)OCC + C1CCCCC1
viscosity [mPa·s], 101 kPa
Details | 298.15 K | 308.15 K
x1 = 0.0581 | 0.837 | 0.711
x1 = 0.1534 | 0.768 | 0.651
x1 = 0.2549 | 0.711 | 0.601
x1 = 0.3548 | 0.668 | 0.564
x1 = 0.3935 | 0.655 | 0.552
x1 = 0.5465 | 0.619 | 0.52
x1 = 0.5568 | 0.618 | 0.518
x1 = 0.6264 | 0.61 | 0.511
x1 = 0.7559 | 0.606 | 0.506
x1 = 0.8548 | 0.614 | 0.51
x1 = 0.9399 | 0.628 | 0.52

CCCCCN + CCC(=O)O
viscosity [mPa·s], 101.33 kPa
Details | 293.15 K | 298.15 K | 298.5 K | 303.15 K | 308.15 K | 313.15 K | 318.15 K | 323.15 K
x2 = 0.1 | 1.62 | 1.53 | – | 1.42 | 1.4 | 1.32 | 1.24 | –
x2 = 0.2 | 1.97 | 1.86 | – | 1.74 | 1.69 | 1.6 | 1.51 | –
x2 = 0.3 | 13.7 | 11.78 | – | 10.12 | 8.82 | 7.77 | 6.87 | –
x2 = 0.4 | 85.81 | – | 71.98 | 56.82 | 46.99 | 39.47 | 33.6 | 28.82
x2 = 0.5 | 707.8 | 510.2 | – | 386 | 296.3 | 226.2 | 178.3 | –
x2 = 0.6 | 368.1 | 274.6 | – | 210 | 164.6 | 130.8 | 103.8 | –
x2 = 0.7 | 75.4 | 60.4 | – | 48.75 | 40.4 | 33.8 | 28.4 | –

O=[N+]([O-])[O-].[K+] + O
viscosity [mPa·s]
Details | x1 = 0.0009 | x1 = 0.0018 | x1 = 0.00893 | x1 = 0.0177 | x1 = 0.02 | x1 = 0.02631 | x1 = 0.03478 | x1 = 0.0431 | x1 = 0.05127
293.15 K, 101.3 kPa | 0.999 | 0.9967 | 0.9784 | 0.9678 | – | – | – | 0.9855 | 1.002
298.15 K, 101.3 kPa | – | 0.887 | 0.875 | – | – | – | 0.8802 | 0.8927 | 0.9095
303.15 K, 101.3 kPa | 0.7964 | 0.7957 | 0.7884 | 0.7866 | – | 0.791 | 0.8004 | 0.8138 | 0.8319
308.15 K, 101.3 kPa | 0.7193 | 0.7184 | 0.7156 | 0.7174 | – | 0.7235 | 0.7334 | – | 0.7636
318.15 K, 101.3 kPa | 0.5964 | 0.5967 | 0.5993 | 0.6038 | – | 0.6128 | – | 0.6376 | 0.6543
323.15 K, 101 kPa | – | – | – | – | 0.565 | – | – | – | –

Cc1cccc([N+](=O)[O-])c1 + c1ccccc1
303.15 K, 101.33 kPa
Details | viscosity [mPa·s]
x1 = 0.2 | 0.7
x1 = 0.395 | 0.85
x1 = 0.599 | 1.09
x1 = 0.804 | 1.44

CCOC(=O)c1ccccc1 + CCCCCC
101 kPa
Details | viscosity [mPa·s]
298.15 K, x2 = 0.0271 | 1.845
298.15 K, x2 = 0.1115 | 1.528
298.15 K, x2 = 0.1588 | 1.375
298.15 K, x2 = 0.2058 | 1.242
298.15 K, x2 = 0.3029 | 1.008
298.15 K, x2 = 0.3991 | 0.828
298.15 K, x2 = 0.4898 | 0.688
298.15 K, x2 = 0.5921 | 0.57
298.15 K, x2 = 0.6377 | 0.527
298.15 K, x2 = 0.6782 | 0.491
298.15 K, x2 = 0.7316 | 0.456
298.15 K, x2 = 0.773 | 0.426
298.15 K, x2 = 0.8227 | 0.394
298.15 K, x2 = 0.8654 | 0.371
298.15 K, x2 = 0.9101 | 0.354
298.15 K, x2 = 0.9517 | 0.341
303.15 K, x1 = 0.0927 | 0.329
303.15 K, x1 = 0.1853 | 0.38
303.15 K, x1 = 0.2811 | 0.448
303.15 K, x1 = 0.3781 | 0.531
303.15 K, x1 = 0.4761 | 0.634
303.15 K, x1 = 0.5765 | 0.764
303.15 K, x1 = 0.6794 | 0.93
303.15 K, x1 = 0.7852 | 1.147
303.15 K, x1 = 0.8902 | 1.41
308.15 K, x1 = 0.0927 | 0.315
308.15 K, x1 = 0.1853 | 0.366
308.15 K, x1 = 0.2811 | 0.429
308.15 K, x1 = 0.3781 | 0.508
308.15 K, x1 = 0.4761 | 0.603
308.15 K, x1 = 0.5765 | 0.72
308.15 K, x1 = 0.6794 | 0.877
308.15 K, x1 = 0.7852 | 1.065
308.15 K, x1 = 0.8902 | 1.303
308.15 K, x2 = 0.0828 | 1.413
308.15 K, x2 = 0.1328 | 1.29
308.15 K, x2 = 0.171 | 1.201
308.15 K, x2 = 0.2301 | 1.074
308.15 K, x2 = 0.2802 | 0.973
308.15 K, x2 = 0.3274 | 0.887
308.15 K, x2 = 0.3722 | 0.812
308.15 K, x2 = 0.4224 | 0.741
308.15 K, x2 = 0.4708 | 0.677
308.15 K, x2 = 0.5165 | 0.624
308.15 K, x2 = 0.5609 | 0.576
308.15 K, x2 = 0.6066 | 0.533
308.15 K, x2 = 0.6587 | 0.489
308.15 K, x2 = 0.7033 | 0.457
308.15 K, x2 = 0.7489 | 0.426
308.15 K, x2 = 0.7953 | 0.397
308.15 K, x2 = 0.8419 | 0.372
308.15 K, x2 = 0.8794 | 0.356
308.15 K, x2 = 0.9354 | 0.331
313.15 K, x1 = 0.0927 | 0.295
313.15 K, x1 = 0.1853 | 0.346
313.15 K, x1 = 0.2811 | 0.406
313.15 K, x1 = 0.3781 | 0.476
313.15 K, x1 = 0.4761 | 0.562
313.15 K, x1 = 0.5765 | 0.673
313.15 K, x1 = 0.6794 | 0.815
313.15 K, x1 = 0.7852 | 0.99
313.15 K, x1 = 0.8902 | 1.2
318.15 K, x2 = 0.0471 | 1.244
318.15 K, x2 = 0.1005 | 1.133
318.15 K, x2 = 0.149 | 1.036
318.15 K, x2 = 0.2038 | 0.939
318.15 K, x2 = 0.252 | 0.861
318.15 K, x2 = 0.3057 | 0.781
318.15 K, x2 = 0.352 | 0.718
318.15 K, x2 = 0.4057 | 0.652
318.15 K, x2 = 0.4516 | 0.602
318.15 K, x2 = 0.5027 | 0.55
318.15 K, x2 = 0.5475 | 0.51
318.15 K, x2 = 0.5991 | 0.47
318.15 K, x2 = 0.6439 | 0.439
318.15 K, x2 = 0.6933 | 0.41
318.15 K, x2 = 0.7382 | 0.387
318.15 K, x2 = 0.7869 | 0.364
318.15 K, x2 = 0.8296 | 0.346
318.15 K, x2 = 0.878 | 0.327
